Values joined by “and” are separate entries in the source; they are usually repeats but may differ in a detail not shown here. Equal entries are not always repeated.
What was measured:
[1] = Pharmacokinetic studies in rats; format: in vivo, rat; conditions: for Plasma Concentration: male rat
Experimental: Pharmacokinetic studies on MDM2 inhibitors were carried out in rat. For comparison, the MDM2 inhibitor, AT-219, was also studied.

[2] = Pharmacokinetic studies in Beagle dogs; format: in vivo
[3] = Microsomal stability study, negative control incubation; format: in vitro ADME
[4] = test system: LnCAP human xenograft tumors; conditions: mice bearing LnCAP xenograft, oral 200-300 mg/kg daily or twice a day, 2 weeks; cited from earlier work
[5] = rats, IV 5 mg/kg, animals and MEAN
[6] = rats, IV 5 mg/kg, animals and MEAN, mean
[7] = rats, PO 25 mg/kg, animals and MEAN

MI-219
Plasma Concentration ([1]; IV 5 mg/kg, 0.083 hr, animals M1, M2 and Mean): 5873.30 ng/mL and 5229.30 ng/mL
Plasma Concentration ([1]; IV 5 mg/kg, 0.083 hr, animals M1, M2 and Mean, mean): 5551.30 ng/mL
Plasma Concentration ([1]; IV 5 mg/kg, 0.5 hr, animals and Mean): 693.45 ng/mL and 548.39 ng/mL
Plasma Concentration ([1]; IV 5 mg/kg, 0.5 hr, animals and Mean, mean): 620.92 ng/mL
Plasma Concentration ([1]; IV 5 mg/kg, 1 hr, animals and Mean): 330.71 ng/mL and 344.66 ng/mL
Plasma Concentration ([1]; IV 5 mg/kg, 1 hr, animals and Mean, mean): 337.68 ng/mL
Plasma Concentration ([1]; IV 5 mg/kg, 2 hr, animals and Mean): 164.88 ng/mL and 134.91 ng/mL
Plasma Concentration ([1]; IV 5 mg/kg, 2 hr, animals and Mean, mean): 149.90 ng/mL
Plasma Concentration ([1]; IV 5 mg/kg, 4 hr, animals and Mean): 49.27 ng/mL and 56.50 ng/mL
Plasma Concentration ([1]; IV 5 mg/kg, 4 hr, animals and Mean, mean): 52.88 ng/mL
Plasma Concentration ([1]; IV 5 mg/kg, 6 hr, animals and Mean): 24.18 ng/mL and 32.66 ng/mL
Plasma Concentration ([1]; IV 5 mg/kg, 6 hr, animals and Mean, mean): 28.42 ng/mL
Plasma Concentration ([1]; IV 5 mg/kg, 8 hr, animals and Mean): 11.05 ng/mL and 18.98 ng/mL
Plasma Concentration ([1]; IV 5 mg/kg, 8 hr, animals and Mean, mean): 15.02 ng/mL
Plasma Concentration ([1]; IV 5 mg/kg, 24 hr, animals and Mean): 1.86 ng/mL and 1.28 ng/mL
Plasma Concentration ([1]; IV 5 mg/kg, 24 hr, animals and Mean, mean): 1.57 ng/mL
Plasma Concentration ([1]; PO 25 mg/kg, 0.083 hr, animals M6-M8 and Mean): 1526.57 ng/mL and 1380.03 ng/mL and 1642.42 ng/mL
Plasma Concentration ([1]; PO 25 mg/kg, 0.083 hr, animals M6-M8 and Mean, mean): 1516.34 ng/mL
Plasma Concentration ([1]; PO 25 mg/kg, 0.5 hr, animals and Mean): 3332.19 ng/mL and 2500.25 ng/mL and 4278.56 ng/mL
Plasma Concentration ([1]; PO 25 mg/kg, 0.5 hr, animals and Mean, mean): 3370.33 ng/mL
Plasma Concentration ([1]; PO 25 mg/kg, 1 hr, animals and Mean): 3101.06 ng/mL and 2957.44 ng/mL and 1779.31 ng/mL
Plasma Concentration ([1]; PO 25 mg/kg, 1 hr, animals and Mean, mean): 2612.60 ng/mL
Plasma Concentration ([1]; PO 25 mg/kg, 2 hr, animals and Mean): 1064.21 ng/mL and 1534.41 ng/mL and 1342.18 ng/mL
Plasma Concentration ([1]; PO 25 mg/kg, 2 hr, animals and Mean, mean): 1313.60 ng/mL
Plasma Concentration ([1]; PO 25 mg/kg, 4 hr, animals and Mean): 296.644 ng/mL and 223.937 ng/mL and 407.415 ng/mL
Plasma Concentration ([1]; PO 25 mg/kg, 4 hr, animals and Mean, mean): 309.33 ng/mL
Plasma Concentration ([1]; PO 25 mg/kg, 6 hr, animals and Mean): 103.285 ng/mL and 90.8093 ng/mL and 131.398 ng/mL
Plasma Concentration ([1]; PO 25 mg/kg, 6 hr, animals and Mean, mean): 108.50 ng/mL
Plasma Concentration ([1]; PO 25 mg/kg, 8 hr, animals and Mean): 80.4445 ng/mL and 66.2777 ng/mL
Plasma Concentration ([1]; PO 25 mg/kg, 8 hr, animals and Mean, mean): 64.76 ng/mL
Plasma Concentration ([1]; PO 25 mg/kg, 24 hr, animals and Mean): 25.1348 ng/mL and 17.5136 ng/mL and 20.2154 ng/mL
Plasma Concentration ([1]; PO 25 mg/kg, 24 hr, animals and Mean, mean): 20.95 ng/mL
% F ([1]; male rats, oral dose 25 mg/kg): 65%
AUC(0-t) ([1]; male rats, oral dose 25 mg/kg): 7677 ± 328
Cmax ([1]; male rats, oral dose 25 mg/kg): 3751 ± 1068 ng/mL
T1/2 ([1]; male rats, oral dose 25 mg/kg): 1.4 ± 0.1 h
oral bioavailability / oral pharmacokinetics in rats (in words) ([1]; oral dosing, rats): orally bioavailable
AUC(0-t) [1, 5]: 2318.88 µg·h/L and 2379.54 µg·h/L
AUC(0-∞) [1, 5]: 2319.77 ng·h/mL and 2379.62 ng·h/mL
CLz [1, 5]: 36 mL/min/kg and 35 mL/min/kg
Cmax [1, 5]: 5229.30 ng/mL and 5873.30 ng/mL
MRT(0-∞) [1, 5]: 1.51 h and 1.26 h
T1/2 [1, 5]: 2.54 h and 1.86 h
Vz [1, 5]: 7.90 L/kg and 5.62 L/kg
AUC(0-t) [1, 6]: 2349.21 µg·h/L
AUC(0-∞) [1, 6]: 2349.69 ng·h/mL
CLz [1, 6]: 35.5 mL/min/kg
Cmax [1, 6]: 5551.30 ng/mL
MRT(0-∞) [1, 6]: 1.38 h
T1/2 [1, 6]: 2.20 h
Vz [1, 6]: 6.76 L/kg
F ([1]; rats, PO 25 mg/kg vs IV 5 mg/kg, animals and MEAN): 65.45±2.77% and 62.81% and 65.22% and 68.34% and 65.45%
AUC(0-t) [1, 7]: 7378.78 µg·h/L and 7623.45 µg·h/L and 8028.71 µg·h/L
AUC(0-∞) [1, 7]: 7689.94 ± 325.86 ng·h/mL and 7378.81 ng·h/mL and 7662.25 ng·h/mL and 8028.76 ng·h/mL and 7689.94 ng·h/mL
Cmax [1, 7]: 3332.19 ng/mL and 2957.44 ng/mL and 4965.7 ng/mL and 3751.78 ng/mL
MRT(0-∞) [1, 7]: 2.64 h and 2.67 h and 2.62 h
T1/2 [1, 7]: 1.36 h and 1.54 h and 1.40 h and 1.43 h
AUC(0-t) ([1]; rats, PO 25 mg/kg, animals and MEAN, mean): 7676.98 µg·h/L
oral bioavailability in dogs (in words) [2]: orally bioavailable
AUC ([2]; 10 mg/kg oral dosing): 7947 ± 2396 ng·h/mL
MRT ([2]; IV 2.0 mg/kg): 1.22 h and 1.81 h and 1.87 h
Plasma Concentration ([2]; IV 2.0 mg/kg, 0.117 h, dogs and Mean): 4069 ng/mL and 7668 ng/mL
Plasma Concentration ([2]; IV 2.0 mg/kg, 0.117 h, dogs and Mean, mean): 5868 ng/mL
Plasma Concentration ([2]; IV 2.0 mg/kg, 0.20 h): 2623 ng/mL and 2272 ng/mL and 3918 ng/mL
Plasma Concentration ([2]; IV 2.0 mg/kg, 0.20 h, mean): 2938 ng/mL
Plasma Concentration ([2]; IV 2.0 mg/kg, 0.5 h): 1888 ng/mL and 1192 ng/mL and 1795 ng/mL
Plasma Concentration ([2]; IV 2.0 mg/kg, 0.5 h, mean): 1625 ng/mL
Plasma Concentration ([2]; IV 2.0 mg/kg, 1.0 h): 853 ng/mL and 704 ng/mL and 1044 ng/mL
Plasma Concentration ([2]; IV 2.0 mg/kg, 1.0 h, mean): 867 ng/mL
Plasma Concentration ([2]; IV 2.0 mg/kg, 3.0 h): 331 ng/mL and 402 ng/mL
Plasma Concentration ([2]; IV 2.0 mg/kg, 3.0 h, mean): 367 ng/mL
Plasma Concentration ([2]; IV 2.0 mg/kg, 4.0 h): 256 ng/mL and 188 ng/mL and 248 ng/mL
Plasma Concentration ([2]; IV 2.0 mg/kg, 4.0 h, mean): 231 ng/mL
Plasma Concentration ([2]; IV 2.0 mg/kg, 6.0 h): 114.3 ng/mL and 81.1 ng/mL and 119 ng/mL
Plasma Concentration ([2]; IV 2.0 mg/kg, 6.0 h, mean): 105 ng/mL
Plasma Concentration ([2]; IV 2.0 mg/kg, 8.0 h): 52.2 ng/mL and 39.7 ng/mL and 57.8 ng/mL
Plasma Concentration ([2]; IV 2.0 mg/kg, 8.0 h, mean): 49.9 ng/mL
Plasma Concentration ([2]; IV 2.0 mg/kg, 12 h): 17.9 ng/mL and 9.75 ng/mL and 19.4 ng/mL
Plasma Concentration ([2]; IV 2.0 mg/kg, 12 h, mean): 15.7 ng/mL
T½ ([2]; IV 2.0 mg/kg, dogs and Mean): 4.32 h and 3.00 h and 4.36 h
T½ ([2]; IV 2.0 mg/kg, dogs and Mean, mean): 3.90 h
MRT ([2]; IV 2.0 mg/kg, mean): 1.63 h
AUC(0-t) ([2]; PO 10 mg/kg): 9665 ng·h/mL and 5210 ng·h/mL and 8967 ng·h/mL
AUC(0-∞) ([2]; PO 10 mg/kg): 9681 ng·h/mL and 5226 ng·h/mL and 8985 ng·h/mL
Cmax ([2]; PO 10 mg/kg): 3001 ng/mL and 3560 ng/mL and 2119 ng/mL and 3323 ng/mL
F ([2]; PO 10 mg/kg): 26.1% and 26.8% and 28.6%
MRT ([2]; PO 10 mg/kg): 3.09 h and 2.71 h and 3.33 h
Tmax ([2]; PO 10 mg/kg): 0.83 h and 1.0 h and 0.5 h
Plasma Concentration ([2]; PO 10 mg/kg, 0.5 h, dogs and Mean): 2101 ng/mL and 1842 ng/mL and 3323 ng/mL
Plasma Concentration ([2]; PO 10 mg/kg, 0.5 h, dogs and Mean, mean): 2422 ng/mL
Plasma Concentration ([2]; PO 10 mg/kg, 1 h): 3560 ng/mL and 2119 ng/mL and 2999 ng/mL
Plasma Concentration ([2]; PO 10 mg/kg, 1 h, mean): 2893 ng/mL
Plasma Concentration ([2]; PO 10 mg/kg, 4 h): 483 ng/mL and 603 ng/mL and 312 ng/mL and 535 ng/mL
Plasma Concentration ([2]; PO 10 mg/kg, 24 h): 4.05 ng/mL and 3.78 ng/mL and 4.48 ng/mL
Plasma Concentration ([2]; PO 10 mg/kg, 24 h, mean): 4.10 ng/mL
T½ ([2]; PO 10 mg/kg, dogs and Mean): 2.77 h and 3.03 h and 2.81 h
T½ ([2]; PO 10 mg/kg, dogs and Mean, mean): 2.87 h
AUC(0-t) ([2]; PO 10 mg/kg, mean): 7947 ng·h/mL
AUC(0-∞) ([2]; PO 10 mg/kg, mean): 7964 ng·h/mL
MRT ([2]; PO 10 mg/kg, mean): 3.04 h
Microsomal stability, % remaining ([3]; 0 min): 100.00%
Microsomal stability, % remaining ([3]; 5 min): 102.63%
Microsomal stability, % remaining ([3]; 10 min): 105.25%
Microsomal stability, % remaining ([3]; 15 min): 109.19%
Microsomal stability, % remaining ([3]; 30 min): 111.07%
Microsomal stability, % remaining ([3]; 45 min): 104.13%
Microsomal stability, % remaining ([3]; 60 min): 109.01%
tumor growth inhibition (in words) [4]: effective tumor growth inhibition

— patent US9079913B2, “Spiro-oxindole MDM2 antagonists” (The Regents of the University of Michigan, priority 2009, dated 2015)
